# Laboratory results reported in US9132082B2, “Compositions and methods for inhibiting gastric acid secretion” (Vecta, Ltd., priority 2005, dated 2015).
# How the values were obtained:
# gastric acid secretion [1] = assay: 3-way crossover clinical trial of Cap-in-Cap OMP/SA versus OMP, 24 hour intra-gastric pH; format: in vivo, human; conditions: OMP/SA at bedtime without food, OMP 20 mg before breakfast
# Experimental: Thirty-six (36), H. pylori negative, healthy human volunteers received OMP 20 mg/SA 300 mg or OMP 40 mg/SA 300 mg at bedtime without food formulated as Cap-in-Cap capsules and OMP 20 mg dosed on an empty stomach before breakfast. These drugs were tested in a 3-way, randomized crossover study. […] Each treatment was administered once daily, for 5 consecutive days with a washout period of 21-25 days between treatments. 24 Hour intra-gastric pH monitoring was performed following the fifth dose (day 5).
# [2] = tested on: nocturnal gastric acid secretion; assay: Clinical study: bedtime omeprazole with succinic acid one hour later, gastric pH probe; format: in vivo, human; conditions: average n = 7
# Experimental: Succinic Acid was administered one hour following Omeprazole administration. Gastric pH was measured on Day 1 and 5 using a pH probe. The pH probe was inserted into the distal portion of the stomach and located 20 cm below the lower esophageal sphincter. Baseline measurements of gastric pH were performed before omeprazole administration and during the following 24 hours. Standard meals were administered during pH monitoring. Blood samples for PK analysis of Omeprazole were drawn on Day 1 and 5. After a washout period of at least 14 days, the same subjects were administered with Omeprazole 40 mg alone.
# gastric pH = assay: Further clinical study: omeprazole and SA capsules co-administered at bedtime, 24 h gastric pH; format: in vivo, human; conditions: 10:00 pm on empty stomach
# Experimental: In a further clinical study; healthy human volunteers were administered with Omeprazole and SA capsules which were co-administered at bed-time: Treatment T1-40 mg Omeprazole plus 600 mg SA; Treatment T2-40 mg Omeprazole plus 300 mg SA; Treatment T3-20 mg Omeprazole plus 300 mg SA. The study included gastric pH measurements on day 1 (first dose), day 3 (third dose) and day 5 (fifth dose). Study medications were administered at 10:00 pm on empty stomach and pH measurements were recorded for 24 hrs. The percentage time of gastric pH above 4 following the administration of SA and Omeprazole was calculated after the first dose, the third dose and the fifth dose.
# gastric acid output = conditions: extracted from fermented alcoholic beverages; Teyssen et al.; cited from earlier work
# frog mucosa = conditions: ex vivo model of frog mucosa; cited from earlier work
# gastric acid secretion [3] = assay: Conscious pylorus-ligated rats: pantoprazole alone or with succinic or maleic acid; format: in vivo; conditions: maleic acid 14.7 mg/kg with pantoprazole 3 mg/kg; FIG. 4
# Experimental: This experimental model permits the analysis of the effect of drugs on gastric acid secretion in conscious animals and avoids the effect of anesthesia on gastric acid secretion. […] The ligature was placed around the esophagus, the stomach removed and gastric content was collected. Following centrifugation, the gastric output and the pH of the gastric juice samples was determined.
# gastric acid secretion [4] = conditions: administered after ligation of the pylorus; FIG. 5
# Experimental: The possibility that succinic acid induces gastric acid secretion via local effect on the gastric lumen was tested in animals in which sodium succinate was administered after the ligation of the pylorus.
# gastric acid secretion [5] = conditions: 15 mg/kg per os, pylorus ligated 30 min later, gastric juice after 60 min; FIG. 1
# Experimental: Rats were administered (per os) with 15 mg/kg of sodium succinate (Na-SA) using gavage. 30 minutes later the rats were anesthetized with ketamine/domitor and the pylorus was ligated. Following additional 60 min, gastric juice was collected from the gastric lumen. Acid output was determined by titration with NaOH. Total acid output expressed in mEq HCl was calculated by multiplying the sample volume by the acid concentration. Results are expressed as means±SEM of 12 animals from each experimental group.
# [6] = Day 1, bedtime dosing without a meal
# [7] = Day 5, bedtime dosing without a meal
smiles,measurement,setting,value
"COc1ccc2[nH]c([S+]([O-])Cc3ncc(C)c(OC)c3C)nc2c1 (stereo not drawn) [Omeprazole, omeprazole]",Nighttime % time pH < 3,"gastric acid secretion [1]; 12 am-8 am, day 5",65.5%
same,Nighttime % time pH > 4,"gastric acid secretion [1]; 12 am-8 am, day 5",27.2%
same,Nighttime % time pH > 5,"gastric acid secretion [1]; 12 am-8 am, day 5",11.5%
same,24-hour % time pH < 3,gastric acid secretion [1]; day 5 (fifth dose),31.2%
same,24-hour % time pH > 4,gastric acid secretion [1]; day 5 (fifth dose),47.6%
same,24-hour % time pH > 5,gastric acid secretion [1]; day 5 (fifth dose),21.6%
same,2:00-4:00 AM (% time pH > 4),[2]; [6],32.72%
same,4:00-6:00 AM (% time pH > 4),[2]; [6],52.30%
same,12:00-2:00 AM (% time pH > 4),[2]; [6],29.57%
same,2:00-4:00 AM (% time pH > 4),[2]; [7],53.11%
same,4:00-6:00 AM (% time pH > 4),[2]; [7],64.94%
same,12:00-2:00 AM (% time pH > 4),[2]; [7],52.31%
same,% time with pH > 4 (nocturnal hours only),gastric pH; Fifth dose,Fifth dose: 49%
same,% time with pH > 4 (total 24 h),gastric pH; Fifth dose,Fifth dose: 64%
same,% time with pH > 4 (nocturnal hours only),gastric pH; First dose,First dose: 25%
same,% time with pH > 4 (total 24 h),gastric pH; First dose,First dose: 41%
"O=C(O)CCC(=O)O [Succinic acid, succinic acid]",gastric acid output in humans,gastric acid output,stimulate gastric acid output
same,proton secretion,frog mucosa,may stimulates proton secretion
O=C(O)CCC(=O)C(=O)O [alpha-ketoglutarate],proton secretion,frog mucosa,may stimulates proton secretion
O=C(O)CC(O)C(=O)O (stereo not drawn) [malate],proton secretion,frog mucosa,may stimulates proton secretion
O=C(O)/C=C\C(=O)O [maleic acid],gastric acid output in humans,gastric acid output,stimulate gastric acid output
same,inhibitory effect of pantoprazole on gastric acid secretion,gastric acid secretion [3],enhanced the inhibitory effect of pantoprazole
O=C([O-])CCC(=O)[O-].[Na+].[Na+] [sodium succinate],acid secretion,gastric acid secretion [4],capable of inducing acid secretion
same,gastric acid secretion (total acid output),gastric acid secretion [5],significantly enhanced gastric acid secretion
